Read-outs that look alike come from different tables or passages of the source.
Assays:
A. baumannii PBP3 S390T = experiment: Acylation rate constant (kinact/Ki), fluorescence anisotropy competition with BOCILLIN; conditions: variant data from McLeod et al. (2018)
A. baumannii PBP3 S395F = experiment: as above; conditions: variant data from McLeod et al. (2018)
A. baumannii PBP3 H370Y = experiment: as above
[1] = system: isogenic A. baylyi ADP1 panel encoding wildtype or mutant PBP3; experiment: Broth microdilution MIC, isogenic A. baylyi panel (PBP3 variants with or without overexpressed β-lactamases); type: cell-based; conditions: for MIC: Acinetobacter baylyi, A. baylyi
Experimental: To understand the effect of PBP3 variants on whole cell activity in the absence of other resistance determinants, the MIC values of sulbactam, SUL-DUR and comparator β-lactams were measured against an isogenic A. baylyi panel engineered to contain individual strains in which the endogenous PBP3 was replaced with the variant of interest.
Each of the A. baylyi panel members were then transformed with plasmids that constitutively expressed five distinct, representative β-lactamases commonly found in Acinetobacter clinical isolates (TEM-1, ADC-30, OXA-23, OXA-24 or OXA-66) and evaluated for changes in antibiotic susceptibility. […] . […] .
The isogenic A. baylyi panel used for chromosomal expression of various PBP3 mutants with or without constitutive expression of various β-lactamases were constructed as part of this study. The A. baylyi ADP1 PBP3 ORF was cloned into pUC19 with a gentamicin cassette inserted downstream of the PBP3 ORF for selection purposes. Additionally, 500 bp of flanking homology to the ADP1 genome were inserted upstream of the PBP3 ORF and downstream of the gentamicin cassette. […] Linear DNA consisting of the 500 bp upstream-PBP3-Gent-500 bp downstream fragment was cloned out of the pUC19 plasmid by PCR and used for transformation of the ADP1 strain. The strain was grown at 30°C overnight in LB medium shaking at 250 rpm. Seventy microliters of the overnight ADP1 culture were combined with 1 mL of fresh LB and 200 ng of linear DNA fragment and incubated for 5 h at 30°C and shaking at 200 rpm. Various dilutions of each culture were plated on LB agar supplemented with 10 µg/mL of gentamicin to select for transformants with successful chromosomal integrations. Integrants were verified by Sanger sequencing using purified genomic DNA.
For the constitutive expression of various β-lactamases, ORFs of bla TEM-1, bla ADC-30, bla OXA-23, bla OXA-24, and bla OXA-66 were cloned by PCR from various clinical strains that encode these genes and inserted into the pWH1266 plasmid modified to encode a kanamycin cassette for selection. These plasmids along with an empty vector were used to transform each of the A. baylyi ADP1 strains engineered above that encode wild-type PBP3 or variants. Transformations were carried out as done above with selection on LB agar supplemented with 20 µg/mL of kanamycin.
(§1) Antimicrobial susceptibility testing was performed using broth microdilution following standardized methods established by the Clinical Laboratory Standards Institute (CLSI) ([35], [36]). Quality control testing was performed as specified by CLSI using A. baumannii NCTC 13304 ([35]). MIC values were interpreted using CLSI breakpoints for all antimicrobial agents except those for which CLSI breakpoints are not available ([35]). SUL-DUR was tested as twofold dilutions of sulbactam in combination with a fixed concentration of 4 µg/mL durlobactam ([35]).

[2] = system: A. baumannii KAB1544 and efflux overexpression mutants; experiment: Broth microdilution MIC, isogenic A. baumannii overexpression efflux mutants; type: cell-based; conditions: for MIC: Acinetobacter baumannii
Experimental: (§2) To further assess the role of efflux in SUL-DUR activity against Acinetobacter spp., two panels of A. baumannii isogenic strains were tested. The first consisted of 7 members of an A. baumannii transposon library ([28]) with single gene disruptions in the adeABC, adeIJK, or adeT loci as compared to the parent strain, AB5075. […] This panel of strains consists of four different point mutants in AdeR and five different point mutants in AdeS, which result in the upregulation of AdeABC expression. In addition, this panel contains chromosomal deletions of adeL and adeN, which result in overexpression of AdeFGH and AdeIJK, respectively ([29]).
In contrast, sulbactam, SUL-DUR, and imipenem MIC values were unaffected by these mutants (Table 4).
(§3) The AB5075 parent strain as well as transposon interrupted AdeABC, AdeIJK, and AdeT were purchased from the Manoil laboratory at the University of Washington from their arrayed transposon mutant collection ([28]). The KAB1544 parent as well as efflux pump regulator mutants and deletions were constructed as previously described ([29]).
as §1

[3] = system: A. baumannii AB5075 and transposon mutants in efflux genes; experiment: Broth microdilution MIC, isogenic A. baumannii transposon mutants in efflux genes; type: cell-based; conditions: for In vitro activity (MIC): tested in duplicate
Experimental: as §2
The parent and each isogenic mutant strain in both panels was measured for susceptibility to sulbactam, durlobactam, SUL-DUR, imipenem, and gentamicin. […].
as §3, §1

A. baumannii PBP3 N377Y = experiment: Acylation rate constant (kinact/Ki), fluorescence anisotropy competition with BOCILLIN
A. baumannii PBP3 Q488K = experiment: as above
A. baumannii PBP3 N392T = experiment: as above

C[C@@H](O)[C@H]1C(=O)N2C(C(=O)O)=C(SCCN=CN)C[C@H]12 [imipenem]
% WT (A. baumannii PBP3 S390T): 120% | % WT (A. baumannii PBP3 S395F): 2.0% | % WT (A. baumannii PBP3 H370Y): 106.7% | k inact/K i (A. baumannii PBP3 H370Y; average ± SD): 480 ± 40 ([2]) M^-1s^-1 | MIC ([1]; PBP3 H370Y, overexpressed ADC-30): 0.03 µg/mL | MIC ([1]; PBP3 H370Y, overexpressed OXA-23): 4 µg/mL | MIC ([1]; PBP3 H370Y, overexpressed OXA-24): > 8 µg/mL | MIC ([1]; PBP3 H370Y, overexpressed OXA-66): 0.06 µg/mL | MIC ([1]; PBP3 H370Y, overexpressed TEM-1): 0.03 µg/mL | MIC ([1]; PBP3 H370Y, β-lactamase None (empty vector)): 0.03 µg/mL | MIC ([1]; PBP3 Wildtype, overexpressed ADC-30, read-out: MIC): 0.13 µg/mL | MIC ([1]; PBP3 Wildtype, overexpressed OXA-23, read-out: MIC): 8 µg/mL | MIC ([1]; PBP3 Wildtype, overexpressed OXA-24, read-out: MIC): 8 µg/mL | MIC ([1]; PBP3 Wildtype, overexpressed OXA-66, read-out: MIC): 0.13 µg/mL | MIC ([1]; PBP3 Wildtype, overexpressed TEM-1, read-out: MIC): 0.03 µg/mL | MIC ([1]; PBP3 Wildtype, β-lactamase None (empty vector), read-out: MIC): 0.03 µg/mL | increase in MIC values in the presence of β-lactamase ([1]; wildtype PBP3 strain, ADC-30, OXA-23, OXA-24 and OXA-66): ≥ 4 fold | MIC ([2]; AdeR A91V, AdeABC overexpressed, read-out: MIC): 0.5 µg/mL | MIC ([2]; AdeR D20N, AdeABC overexpressed, read-out: MIC): 0.5 µg/mL | MIC ([2]; AdeR E219A, AdeABC overexpressed, read-out: MIC): 0.25 µg/mL | MIC ([2]; AdeR P116L, AdeABC overexpressed, read-out: MIC): 0.5 µg/mL | MIC ([2]; AdeS A94V, AdeABC overexpressed, read-out: MIC): 0.5 µg/mL | MIC ([2]; AdeS G30D, AdeABC overexpressed, read-out: MIC): 0.5 µg/mL | MIC ([2]; AdeS G103D, AdeABC overexpressed, read-out: MIC): 0.25 µg/mL | MIC ([2]; AdeS R152K, AdeABC overexpressed, read-out: MIC): 0.5 µg/mL | MIC ([2]; AdeS T153M, AdeABC overexpressed, read-out: MIC): 0.5 µg/mL | MIC ([2]; Parent (KAB1544), no efflux pump overexpressed, read-out: MIC): 0.25 µg/mL | MIC ([2]; ΔadeL, AdeFGH overexpressed): 0.25 µg/mL | MIC ([2]; ΔadeN, AdeIJK overexpressed): 0.25 µg/mL | change in MIC values relative to the parent strain ([2]; most of the AdeR and AdeS mutants (AdeABC overexpression), KAB1544): unaffected | In vitro activity (MIC) ([3]; Parent (AB5075)): 16 µg/mL | In vitro activity (MIC) ([3]; adeA::tn in AB5075): 8 µg/mL | In vitro activity (MIC) ([3]; adeB::tn in AB5075): 8 µg/mL | In vitro activity (MIC) ([3]; adeC::tn in AB5075): 16 µg/mL | In vitro activity (MIC) ([3]; adeI::tn in AB5075): 16 µg/mL | In vitro activity (MIC) ([3]; adeJ::tn in AB5075): 16 µg/mL | In vitro activity (MIC) ([3]; adeK::tn in AB5075): 16 µg/mL | In vitro activity (MIC) ([3]; adeT::tn in AB5075): 8 µg/mL | MIC changes as compared to the parent strain ([3]; all tested efflux gene disruptions, AB5075): ≤ 2 fold | % WT (A. baumannii PBP3 N377Y): 62.2% | k inact/K i (A. baumannii PBP3 N377Y; average ± SD): 280 ± 10 ([2]) M^-1s^-1 | % WT (A. baumannii PBP3 Q488K): 82.2% | k inact/K i (A. baumannii PBP3 Q488K; average ± SD): 370 ± 20 ([2]) M^-1s^-1 | % WT (A. baumannii PBP3 N392T): 175.6% | k inact/K i (A. baumannii PBP3 N392T; average ± SD): 790 ± 50 ([2]) M^-1s^-1

Reference: PMC10648852, “Molecular drivers of resistance to sulbactam-durlobactam in contemporary clinical isolates of Acinetobacter baumannii” (Antimicrobial Agents and Chemotherapy, 2023)
